# From the NIST ThermoML archive (doi:10.1016/j.jct.2016.03.028)
# Numbers after ± are expanded uncertainties.
# Legend:
# [1] = xn = mol fraction of the nth substance listed; conditions: 328.15 K, Liquid; for speed of sound: 100 kPa, Frequency=3 MHz, Sing-around technique in a fixed-path interferometer; for mass density: 101.3 kPa, Vibrating tube method
# [2] = refractive index (Na D-line) (dimensionless); xn = mol fraction of the nth substance listed; conditions: 100 kPa, Liquid, Standard Abbe refractometry
structure (smiles),measurement,setting,value
CCCOCCO [2-propoxyethanol] + CCOS(=O)(=O)[O-].CCn1cc[n+](C)c1,speed of sound,[1]; x2 = 0,1195.8 ± 1.5 m/s
same,speed of sound,[1]; x2 = 0.0496,1221.5 ± 1.5 m/s
same,speed of sound,[1]; x2 = 0.0901,1241.4 ± 1.5 m/s
same,speed of sound,[1]; x2 = 0.1345,1262.4 ± 1.5 m/s
same,speed of sound,[1]; x2 = 0.1738,1280.5 ± 1.5 m/s
same,speed of sound,[1]; x2 = 0.2568,1318.1 ± 1.6 m/s
same,speed of sound,[1]; x2 = 0.3477,1358.5 ± 1.6 m/s
same,speed of sound,[1]; x2 = 0.4406,1399.3 ± 1.6 m/s
same,speed of sound,[1]; x2 = 0.5477,1445.6 ± 1.6 m/s
same,speed of sound,[1]; x2 = 0.6478,1487.8 ± 1.6 m/s
same,speed of sound,[1]; x2 = 0.7729,1537.5 ± 1.6 m/s
same,speed of sound,[1]; x2 = 0.8263,1557 ± 1.6 m/s
same,speed of sound,[1]; x2 = 0.8757,1573.9 ± 1.6 m/s
same,speed of sound,[1]; x2 = 0.9346,1591.9 ± 1.6 m/s
same,mass density,[1]; x2 = 0,881.49 ± 2 kg/m3
same,mass density,[1]; x2 = 0.0496,910.28 ± 2 kg/m3
same,mass density,[1]; x2 = 0.0901,932.1 ± 2 kg/m3
same,mass density,[1]; x2 = 0.1345,954.51 ± 2 kg/m3
same,mass density,[1]; x2 = 0.1738,973.08 ± 2 kg/m3
same,mass density,[1]; x2 = 0.2568,1009.08 ± 2 kg/m3
same,mass density,[1]; x2 = 0.3477,1044.05 ± 2 kg/m3
same,mass density,[1]; x2 = 0.4406,1075.88 ± 2 kg/m3
same,mass density,[1]; x2 = 0.5477,1108.69 ± 2 kg/m3
same,mass density,[1]; x2 = 0.6478,1136.34 ± 2 kg/m3
same,mass density,[1]; x2 = 0.7729,1167.58 ± 2 kg/m3
same,mass density,[1]; x2 = 0.8263,1179.94 ± 2 kg/m3
same,mass density,[1]; x2 = 0.8757,1190.88 ± 2 kg/m3
same,mass density,[1]; x2 = 0.9346,1203.26 ± 2 kg/m3
same,refractive index,"[2]; 298.15 K, x2 = 0",1.41255 ± 0.002
same,refractive index,"[2]; 298.15 K, x2 = 0.0496",1.41807 ± 0.002
same,refractive index,"[2]; 298.15 K, x2 = 0.0901",1.42234 ± 0.002
same,refractive index,"[2]; 298.15 K, x2 = 0.1345",1.42679 ± 0.002
same,refractive index,"[2]; 298.15 K, x2 = 0.1738",1.43052 ± 0.002
same,refractive index,"[2]; 298.15 K, x2 = 0.2568",1.43781 ± 0.002
same,refractive index,"[2]; 298.15 K, x2 = 0.3477",1.44491 ± 0.002
same,refractive index,"[2]; 298.15 K, x2 = 0.4406",1.45131 ± 0.002
same,refractive index,"[2]; 298.15 K, x2 = 0.5477",1.45778 ± 0.002
same,refractive index,"[2]; 298.15 K, x2 = 0.6478",1.46309 ± 0.002
same,refractive index,"[2]; 298.15 K, x2 = 0.7729",1.46902 ± 0.002
same,refractive index,"[2]; 298.15 K, x2 = 0.8263",1.4714 ± 0.002
same,refractive index,"[2]; 298.15 K, x2 = 0.8757",1.47357 ± 0.002
same,refractive index,"[2]; 298.15 K, x2 = 0.9346",1.47615 ± 0.002
same,refractive index,"[2]; 308.15 K, x2 = 0",1.40814 ± 0.002
same,refractive index,"[2]; 308.15 K, x2 = 0.0496",1.41391 ± 0.002
same,refractive index,"[2]; 308.15 K, x2 = 0.0901",1.41835 ± 0.002
same,refractive index,"[2]; 308.15 K, x2 = 0.1345",1.42296 ± 0.002
same,refractive index,"[2]; 308.15 K, x2 = 0.1738",1.42682 ± 0.002
same,refractive index,"[2]; 308.15 K, x2 = 0.2568",1.43433 ± 0.002
same,refractive index,"[2]; 308.15 K, x2 = 0.3477",1.44162 ± 0.002
same,refractive index,"[2]; 308.15 K, x2 = 0.4406",1.44817 ± 0.002
same,refractive index,"[2]; 308.15 K, x2 = 0.5477",1.45477 ± 0.002
same,refractive index,"[2]; 308.15 K, x2 = 0.6478",1.4602 ± 0.002
same,refractive index,"[2]; 308.15 K, x2 = 0.7729",1.46625 ± 0.002
same,refractive index,"[2]; 308.15 K, x2 = 0.8263",1.46868 ± 0.002
same,refractive index,"[2]; 308.15 K, x2 = 0.8757",1.47089 ± 0.002
same,refractive index,"[2]; 308.15 K, x2 = 0.9346",1.4735 ± 0.002
same,refractive index,"[2]; 318.15 K, x2 = 0",1.40355 ± 0.002
same,refractive index,"[2]; 318.15 K, x2 = 0.0496",1.40953 ± 0.002
same,refractive index,"[2]; 318.15 K, x2 = 0.0901",1.41413 ± 0.002
same,refractive index,"[2]; 318.15 K, x2 = 0.1345",1.41891 ± 0.002
same,refractive index,"[2]; 318.15 K, x2 = 0.1738",1.4229 ± 0.002
same,refractive index,"[2]; 318.15 K, x2 = 0.2568",1.43065 ± 0.002
same,refractive index,"[2]; 318.15 K, x2 = 0.3477",1.43817 ± 0.002
same,refractive index,"[2]; 318.15 K, x2 = 0.4406",1.44492 ± 0.002
same,refractive index,"[2]; 318.15 K, x2 = 0.5477",1.45172 ± 0.002
same,refractive index,"[2]; 318.15 K, x2 = 0.6478",1.45729 ± 0.002
same,refractive index,"[2]; 318.15 K, x2 = 0.7729",1.46348 ± 0.002
same,refractive index,"[2]; 318.15 K, x2 = 0.8263",1.46595 ± 0.002
same,refractive index,"[2]; 318.15 K, x2 = 0.8757",1.46818 ± 0.002
same,refractive index,"[2]; 318.15 K, x2 = 0.9346",1.47081 ± 0.002
same,refractive index,"[2]; 328.15 K, x2 = 0",1.39908 ± 0.002
same,refractive index,"[2]; 328.15 K, x2 = 0.0496",1.4053 ± 0.002
same,refractive index,"[2]; 328.15 K, x2 = 0.0901",1.41007 ± 0.002
same,refractive index,"[2]; 328.15 K, x2 = 0.1345",1.41501 ± 0.002
same,refractive index,"[2]; 328.15 K, x2 = 0.1738",1.41912 ± 0.002
same,refractive index,"[2]; 328.15 K, x2 = 0.2568",1.42711 ± 0.002
same,refractive index,"[2]; 328.15 K, x2 = 0.3477",1.43483 ± 0.002
same,refractive index,"[2]; 328.15 K, x2 = 0.4406",1.44175 ± 0.002
same,refractive index,"[2]; 328.15 K, x2 = 0.5477",1.4487 ± 0.002
same,refractive index,"[2]; 328.15 K, x2 = 0.6478",1.45439 ± 0.002
same,refractive index,"[2]; 328.15 K, x2 = 0.7729",1.46071 ± 0.002
same,refractive index,"[2]; 328.15 K, x2 = 0.8263",1.46322 ± 0.002
same,refractive index,"[2]; 328.15 K, x2 = 0.8757",1.46549 ± 0.002
same,refractive index,"[2]; 328.15 K, x2 = 0.9346",1.46815 ± 0.002
